Results from BindingDB's records for doi:10.1021/jm00087a007 (Uppsala University, 1992).

Tests used:
[1] = Compound was evaluated for its binding affinity against Muscarinic acetylcholine receptor M1 in guinea pig cerebral cortex using (-)-[3H]-QNB as radioligand
[2] = Compound was evaluated for its binding affinity against muscarinic acetylcholine receptor M2 in guinea pig heart using (-)-[3H]-QNB as radioligand
[3] = Compound was evaluated for its binding affinity against Muscarinic acetylcholine receptor M1 in guinea pig cerebral cortex using (-)-[3H]-QNB as radioligand; remark: listed apart in the source
[4] = Compound was evaluated for its binding affinity against muscarinic acetylcholine receptor M2 in guinea pig heart using (-)-[3H]-QNB as radioligand; remark: listed apart in the source
[5] = as above; remark: listed apart in the source

Row | SMILES | Ki [1] [µM] | Ki [2] [µM] | Ki [3] [µM] | Ki [4] [µM] | Ki [5] [µM]
1 | C[C@@H]1CCC2(CN3CCC2CC3)O1 (stereo partly specified) | 20 | > 25 |  |  | 
2 | C[C@@H]1CC2(CO1)CN1CCC2CC1 (stereo partly specified) |  |  | 6.3 | > 20 | 
3 | C[C@H]1CC2(CO1)CN1CCC2CC1 (stereo partly specified) | 6.5 | > 20 |  |  | 
4 | CC1(C)OCC2(CN3CCC2CC3)O1 (stereo unspecified) |  |  | 9.3 |  | 30
5 | C[C@H]1CCC2(CN3CCC2CC3)O1 (stereo partly specified) |  |  | 15 | 15 | 
6 | C1OCC2(CN3CCC2CC3)O1 (stereo unspecified) |  |  | 19 |  | 50
7 | C[C@@H]1OCC2(CN3CCC2CC3)O1 (stereo partly drawn) [(2'S)-2'-methylspiro[4-azabicyclo[2.2.2]octane-2,4'-[1,3]dioxolane]] |  |  | 6.3 | > 21 | 
8 | C[C@H]1OCC2(CN3CCC2CC3)O1 (stereo partly drawn) [(2'S)-2'-methylspiro[4-azabicyclo[2.2.2]octane-2,4'-[1,3]dioxolane]] |  |  | 2.9 |  | 9.7
